Results published in patent US20240287138A1, “CYCLIC PEPTIDES FOR INHIBITING TNF RECEPTOR 1 ACTIVITY” (Merck Sharp & Dohme LLC, priority 2023, published 2024).
Numbered stars: 1 amine (or outer) side, 2 acyl side, 3 side chain; on linkers, the order of the positions; unused ones are H or OH. Bridge positions count the residues as written; N and C are the ends. Square brackets hold non-standard residues; d marks the D form. Peptide text beside a SMILES is read from it. Ala(2-carboxypyrimidin-5-yl) = N[C@@H](Cc1cnc(C(=O)O)nc1)C(=O)O; Trp(βS-Me,7-OMe) = COc1cccc2c([C@H](C)[C@H](N)C(=O)O)c[nH]c12; Ala(1-bicyclo(1.1.1)pentyl) = N[C@@H](CC12CC(C1)C2)C(=O)O; Trp(7-CN) = N#Cc1cccc2c(C[C@H](N)C(=O)O)c[nH]c12; Trp(7-Cl) = N[C@@H](Cc1c[nH]c2c(Cl)cccc12)C(=O)O; Ala(pyrimidin-5-yl) = N[C@@H](Cc1cncnc1)C(=O)O; Phe(3-COOH) = N[C@@H](Cc1cccc(C(=O)O)c1)C(=O)O; Phe(4-CONH2) = NC(=O)c1ccc(C[C@H](N)C(=O)O)cc1; Phe(4-COOH) = N[C@@H](Cc1ccc(C(=O)O)cc1)C(=O)O; 4Pal(3S-Me) = C[C@@H](c1ccncc1)[C@H](N)C(=O)O; Trp(7-aza) = N[C@@H](Cc1c[nH]c2ncccc12)C(=O)O; X18 = O=C([C@@H]1C=C[C@H](N[*:1])C1)[*:2]; Pip(5R-OH) = O=C(O)[C@@H]1CC[C@@H](O)CN1; Nle(6-COOH) = N[C@@H](CCCCC(=O)O)C(=O)O; X1 = O=C([C@@H]1CC[C@H](N[*:1])C1)[*:2]; Val(3-OH) = CC(C)(O)[C@H](N)C(=O)O; X40 = CCN([C@H](C)C(=O)[*:2])[*:1]; Pip(4-aza) = O=C(O)[C@@H]1CNCCN1; 4Pal = N[C@@H](Cc1ccncc1)C(=O)O; NMeE = CN[C@@H](CCC(=O)O)C(=O)O; dHyp = O=C(O)[C@H]1C[C@H](O)CN1; Ahp(2) = CCCCC[C@H](N)C(=O)O; hSer = N[C@@H](CCO)C(=O)O; αMeS = C[C@](N)(CO)C(=O)O; Nle = CCCC[C@H](N)C(=O)O; Sar = CNCC(=O)O

Columns and labels:
[1] = target: T1, human soluble TNFR1 (sTNFR1) (Homo sapiens, UniProt P19438); assay: Human sTNFR1-peptide displacement assay (LanthaScreen Eu TR-FRET binding assay)
T1 construct: made in house; host or cells: Sf21 (baculovirus)
T1 sequence (P19438 with tags, fused parts or gaps): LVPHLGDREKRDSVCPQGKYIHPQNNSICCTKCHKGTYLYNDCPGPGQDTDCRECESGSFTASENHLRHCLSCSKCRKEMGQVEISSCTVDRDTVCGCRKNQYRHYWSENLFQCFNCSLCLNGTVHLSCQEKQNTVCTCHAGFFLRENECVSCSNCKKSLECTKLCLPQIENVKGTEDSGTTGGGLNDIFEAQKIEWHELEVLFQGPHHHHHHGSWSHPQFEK
Outline: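 Readout is the 665/615 nm TR-FRET ratio (Eu anti-His donor, streptavidin-Alexa647 acceptor), normalized to DMSO and saturating displacer, fit by Morrison-based five-parameter logistic for Kd^app. His-tagged sTNFR1 (1-211) prebound to 100 nM biotinylated peptide SEQ ID NO.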

[2] = target: T2, TNFα-induced NF-κB signal transduction pathway (TNFR1 signaling) in THP-1 cells (Homo sapiens, UniProt P19438); assay: THP-1 Lucia NF-κB reporter cell assay, inhibition of TNFα-induced NF-κB signaling; format: cell-based; settings: THP-1 NF-κB Lucia reporter cells, 10 ng/mL TNFα, 16-18 h, secreted luciferase; read-out: THP-1 IC50
T2 sequence (P19438 30-455): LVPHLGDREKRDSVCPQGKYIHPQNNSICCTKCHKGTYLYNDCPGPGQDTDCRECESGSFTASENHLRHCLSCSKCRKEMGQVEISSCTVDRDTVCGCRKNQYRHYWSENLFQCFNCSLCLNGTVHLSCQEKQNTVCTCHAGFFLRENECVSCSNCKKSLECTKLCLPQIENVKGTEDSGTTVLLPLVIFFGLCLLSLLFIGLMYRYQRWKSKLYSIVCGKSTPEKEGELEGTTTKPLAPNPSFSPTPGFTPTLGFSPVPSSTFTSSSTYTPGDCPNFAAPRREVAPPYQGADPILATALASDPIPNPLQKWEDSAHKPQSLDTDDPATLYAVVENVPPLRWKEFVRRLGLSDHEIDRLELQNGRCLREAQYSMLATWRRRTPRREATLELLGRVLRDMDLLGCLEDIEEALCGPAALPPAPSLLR
Outline: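 IC50 from a 4-parameter logistic fit of secreted luciferase luminescence (QUANTI-Luc), normalised to min/max controls. Reporter THP-1 cells were exposed to peptides for 1 h at 37 °C before 10 ng/mL TNFα (final) was added overnight (16–18 h).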

Row | SMILES | Kd [1] | IC50 [2] | IC50 [1]
1 | CCCCC[C@@H]1NC(=O)[C@@H]2CC[C@@H](C2)NC(=O)[C@H]([C@@H](C)c2c[nH]c3c(OC)cccc23)NC(=O)CN(C)C(=O)[C@H](Cc2ccc(C(N)=O)cc2)NC(=O)[C@H](Cc2ccc(C(N)=O)cc2)NC(=O)[C@](C)(CO)NC(=O)[C@H](Cc2c[nH]c3c(C#N)cccc23)NC(=O)[C@H](Cc2ccc(C(=O)O)cc2)NC(=O)[C@H](CC(N)=O)NC(=O)[C@H]2C[C@H](O)CN2C(=O)[C@H](Cc2c[nH]c3ccccc23)NC(=O)[C@H](CCCCC(=O)O)NC(=O)[C@H]([C@@H](C)c2ccncc2)NC1=O [SEQ ID NO. 176] (cyclo([Ahp(2)][4Pal(3S-Me)][Nle(6-COOH)]W[dHyp]N[Phe(4-COOH)][Trp(7-CN)][αMeS][Phe(4-CONH2)][Phe(4-CONH2)][Sar][Trp(βS-Me,7-OMe)][X1])) | 0.22 nM | 1 nM | –
2 | CCCC[C@@H]1NC(=O)CSC[C@@H](C(N)=O)NC(=O)[C@H]([C@@H](C)c2c[nH]c3c(OC)cccc23)NC(=O)CN(C)C(=O)[C@H](Cc2ccc(O)cc2)NC(=O)[C@H](Cc2ccc(C(=O)O)cc2)NC(=O)[C@](C)(CO)NC(=O)[C@H](Cc2c[nH]c3c(Cl)cccc23)NC(=O)[C@H](Cc2ccncc2)NC(=O)[C@H](CC(N)=O)NC(=O)[C@H](CCC(=O)O)N(C)C(=O)[C@H](Cc2c[nH]c3ncccc23)NC(=O)[C@H](C(C)(C)O)NC(=O)[C@H](Cc2cncnc2)NC1=O [SEQ ID NO. 177] ({CH2CO}-[Nle][Ala(pyrimidin-5-yl)][Val(3-OH)][Trp(7-aza)][NMeE]N[4Pal][Trp(7-Cl)][αMeS][Phe(4-COOH)]Y[Sar][Trp(βS-Me,7-OMe)]C-NH2; thioether N-14) | 0.54 nM | 3.3 nM | –
3 | CCCC[C@@H]1NC(=O)[C@@H]2CC[C@@H](C2)NC(=O)[C@H]([C@@H](C)c2c[nH]c3c(OC)cccc23)NC(=O)CN(C)C(=O)[C@H](Cc2c[nH]cn2)NC(=O)[C@H](Cc2ccc(C(=O)O)cc2)NC(=O)[C@](C)(CO)NC(=O)[C@H](Cc2c[nH]c3c(Cl)cccc23)NC(=O)[C@H](Cc2ccncc2)NC(=O)[C@H](CC(N)=O)NC(=O)[C@H](CCC(=O)O)N(C)C(=O)[C@H](Cc2c[nH]c3ccccc23)NC(=O)[C@@H]2CNCCN2C(=O)[C@H](Cc2ccncc2)NC1=O [SEQ ID NO. 178] (cyclo([4Pal][Trp(7-Cl)][αMeS][Phe(4-COOH)]H[Sar][Trp(βS-Me,7-OMe)][X1][Nle][4Pal][Pip(4-aza)]W[NMeE]N)) | 0.29 nM | 3.3 nM | –
4 | CCCC[C@@H]1NC(=O)[C@@H]2CC[C@@H](C2)NC(=O)[C@H]([C@@H](C)c2c[nH]c3c(OC)cccc23)NC(=O)CN(C)C(=O)[C@H](Cc2ccc(O)cc2)NC(=O)[C@H](Cc2ccc(C(=O)O)cc2)NC(=O)[C@](C)(CO)NC(=O)[C@H](Cc2c[nH]c3c(Cl)cccc23)NC(=O)[C@H](Cc2ccncc2)NC(=O)[C@H](CCOC)NC(=O)[C@H](CCC(=O)O)N(C)C(=O)[C@H](Cc2c[nH]c3ccccc23)NC(=O)[C@@H]2CNCCN2C(=O)[C@H](Cc2ccncc2)NC1=O [SEQ ID NO. 181] (cyclo([4Pal][Trp(7-Cl)][αMeS][Phe(4-COOH)]Y[Sar][Trp(βS-Me,7-OMe)][X1][Nle][4Pal][Pip(4-aza)]W[NMeE][hSer](Me))) | 0.34 nM | 1.2 nM | –
5 | CCCC[C@@H]1NC(=O)[C@@H]2C=C[C@@H](C2)NC(=O)[C@H]([C@@H](C)c2c[nH]c3c(OC)cccc23)NC(=O)CN(C)C(=O)[C@H](Cc2ccc(O)cc2)NC(=O)[C@H](Cc2ccc(C(=O)O)cc2)NC(=O)[C@](C)(CO)NC(=O)[C@H](Cc2c[nH]c3c(Cl)cccc23)NC(=O)[C@H](Cc2ccncc2)NC(=O)[C@H](CC(N)=O)NC(=O)[C@H](CCC(=O)O)N(C)C(=O)[C@H](Cc2c[nH]c3ccccc23)NC(=O)[C@@H]2CNCCN2C(=O)[C@H](Cc2ccncc2)NC1=O [SEQ ID NO. 182] (cyclo([4Pal][Trp(7-Cl)][αMeS][Phe(4-COOH)]Y[Sar][Trp(βS-Me,7-OMe)][X18][Nle][4Pal][Pip(4-aza)]W[NMeE]N)) | 0.2 nM | 0.9 nM | –
6 | CCCC[C@@H]1NC(=O)CSC[C@@H](C(N)=O)NC(=O)[C@H]([C@@H](C)c2c[nH]c3c(OC)cccc23)NC(=O)CN(C)C(=O)[C@H](Cc2cccc(C(=O)O)c2)NC(=O)[C@H](Cc2ccc(C(N)=O)cc2)NC(=O)[C@](C)(CO)NC(=O)[C@H](Cc2c[nH]c3c(Cl)cccc23)NC(=O)[C@H](Cc2ccc(C(N)=O)cc2)NC(=O)[C@H](CC(N)=O)NC(=O)[C@H](CCC(=O)O)N(C)C(=O)[C@H](Cc2c[nH]c3ccccc23)NC(=O)[C@@H]2CNCCN2C(=O)[C@H](Cc2ccncc2)NC1=O [SEQ ID NO. 184] ({CH2CO}-[Nle][4Pal][Pip(4-aza)]W[NMeE]N[Phe(4-CONH2)][Trp(7-Cl)][αMeS][Phe(4-CONH2)][Phe(3-COOH)][Sar][Trp(βS-Me,7-OMe)]C-NH2; thioether N-14) | – | 1.7 nM | 0.5 nM
7 | CCCC[C@@H]1NC(=O)CSC[C@@H](C(N)=O)NC(=O)[C@H]([C@@H](C)c2c[nH]c3c(OC)cccc23)NC(=O)CN(C)C(=O)[C@H](Cc2ccc(O)cc2)NC(=O)[C@H](Cc2ccc(C(N)=O)cc2)NC(=O)[C@](C)(CO)NC(=O)[C@H](Cc2c[nH]c3c(Cl)cccc23)NC(=O)[C@H](Cc2ccc(C(=O)O)cc2)NC(=O)[C@H](CC(N)=O)NC(=O)[C@H]2C[C@H](O)CN2C(=O)[C@H](Cc2c[nH]c3ccccc23)NC(=O)[C@@H]2CC[C@@H](O)CN2C(=O)[C@H](Cc2ccncc2)NC1=O [SEQ ID NO. 185] ({CH2CO}-[Nle][4Pal][Pip(5R-OH)]W[dHyp]N[Phe(4-COOH)][Trp(7-Cl)][αMeS][Phe(4-CONH2)]Y[Sar][Trp(βS-Me,7-OMe)]C-NH2; thioether N-14) | 0.16 nM | 0.9 nM | 0.2 nM
8 | CCCC[C@@H]1NC(=O)CSC[C@@H](C(N)=O)NC(=O)[C@H]([C@@H](C)c2c[nH]c3c(OC)cccc23)NC(=O)CN(C)C(=O)[C@H](Cc2ccc(O)cc2)NC(=O)[C@H](Cc2ccc(C(N)=O)cc2)NC(=O)[C@](C)(CO)NC(=O)[C@H](Cc2c[nH]c3c(Cl)cccc23)NC(=O)[C@H](Cc2ccncc2)NC(=O)[C@H](CC(N)=O)NC(=O)[C@@H](C)N(CC)C(=O)[C@H](Cc2c[nH]c3ccccc23)NC(=O)[C@@H]2CC[C@@H](O)CN2C(=O)[C@H](Cc2ccncc2)NC1=O [SEQ ID NO. 186] ({CH2CO}-[Nle][4Pal][Pip(5R-OH)]W[X40]N[4Pal][Trp(7-Cl)][αMeS][Phe(4-CONH2)]Y[Sar][Trp(βS-Me,7-OMe)]C-NH2; thioether N-14) | 0.42 nM | 1.9 nM | 0.5 nM
9 | COc1cccc2c([C@H](C)[C@@H]3NC(=O)CN(C)C(=O)[C@H](Cc4ccc(O)cc4)NC(=O)[C@H](Cc4ccc(C(=O)O)cc4)NC(=O)[C@](C)(CO)NC(=O)[C@H](Cc4c[nH]c5c(Cl)cccc45)NC(=O)[C@H](Cc4ccncc4)NC(=O)[C@H](CC(N)=O)NC(=O)[C@H](CCC(=O)O)N(C)C(=O)[C@H](Cc4c[nH]c5ccccc45)NC(=O)[C@@H]4CNCCN4C(=O)[C@H](Cc4ccncc4)NC(=O)[C@H](CC45CC(C4)C5)NC(=O)[C@@H]4CC[C@@H](C4)NC3=O)c[nH]c12 [SEQ ID NO. 190] (cyclo([4Pal][Trp(7-Cl)][αMeS][Phe(4-COOH)]Y[Sar][Trp(βS-Me,7-OMe)][X1][Ala(1-bicyclo(1.1.1)pentyl)][4Pal][Pip(4-aza)]W[NMeE]N)) | 0.33 nM | 1.6 nM | –
10 | CCCC[C@@H]1NC(=O)[C@@H]2CC[C@@H](C2)NC(=O)[C@H]([C@@H](C)c2c[nH]c3c(OC)cccc23)NC(=O)CN(C)C(=O)[C@H](Cc2cnc(C(=O)O)nc2)NC(=O)[C@H](Cc2ccc(C(N)=O)cc2)NC(=O)[C@](C)(CO)NC(=O)[C@H](Cc2c[nH]c3c(Cl)cccc23)NC(=O)[C@H](Cc2ccc(C(=O)O)cc2)NC(=O)[C@H](CC(N)=O)NC(=O)[C@H]2C[C@H](O)CN2C(=O)[C@H](Cc2c[nH]c3ccccc23)NC(=O)[C@@H]2CC[C@@H](O)CN2C(=O)[C@H](Cc2ccncc2)NC1=O [SEQ ID NO. 191] (cyclo([4Pal][Pip(5R-OH)]W[dHyp]N[Phe(4-COOH)][Trp(7-Cl)][αMeS][Phe(4-CONH2)][Ala(2-carboxypyrimidin-5-yl)][Sar][Trp(βS-Me,7-OMe)][X1][Nle])) | 0.18 nM | 1.6 nM | –
